Patent US9079919B2 (HOFFMANN-LA ROCHE INC., priority 2011, dated 2015)
pIC50: −log10 of the molar value.

Target: T1, BACE1 (Homo sapiens, UniProt P56817)
T1 construct: Human HEK293 cells which are stably transfected with a vector expressing a cDNA of the human APP wt gene (APP695); endogenous in cells; host or cells: HEK293 cells stably transfected with human APP695 (wt)
Assay: Cellular Aβ-lowering assay a) (Aβ40 ELISA)
Type: cell-based
Settings: cellular assay a): HEK293 cells expressing human APP695, Aβ40 in supernatant by ELISA after 18-20 hrs; read-out: BACE1 cell act. Aβ40 IC50
Method: a) Human HEK293 cells which are stably transfected with a vector expressing a cDNA of the human APP wt gene (APP695) were used to assess the potency of the compounds in a cellular assay. The cells were seeded in 96-well microtiter plates in cell culture medium (Iscove, plus 10% (v/v) fetal bovine serum, glutamine, penicillin/streptomycin) to about 80% confluence and the compounds were added at a 10× concentration in 1/10 volume of medium without FCS containing 8% DMSO (final concentration of DMSO was kept at 0.8% v/v). After 18-20 hrs incubation at 37° C. and 5% CO2 in a humidified incubator the culture supernatant was harvested for the determination of Aβ40 concentrations. 96 well ELISA plates (e.g., Nunc MaxiSorb) were coated with monoclonal antibody which specifically recognize the C-terminal end of Aβ40 (Brockhaus et al., NeuroReport 9, 1481-1486; 1998). After blocking of non-specific binding sites with e.g. 1% BSA and washing, the culture supernatants were added in suitable dilutions together with a horseradish peroxidase-coupled Aβ detection antibody (e.g., antibody 4G8, Senetek, Maryland Heights, Mo.) and incubated for 5 to 7 hrs. Subsequently the wells of the microtiter plate were washed extensively with Tris-buffered saline containing 0.05% Tween 20 and the assay was developed with tetramethylbenzidine/H2O2 in citric acid buffer. After stopping the reaction with one volume of 1N H2SO4 the reaction was measured in an ELISA reader at 450 nm wavelength. The concentrations of Aβ in the culture supernatants were calculated from a standard curve obtained with known amounts of pure Aβ peptide.

T1 sequence (P56817 46-501): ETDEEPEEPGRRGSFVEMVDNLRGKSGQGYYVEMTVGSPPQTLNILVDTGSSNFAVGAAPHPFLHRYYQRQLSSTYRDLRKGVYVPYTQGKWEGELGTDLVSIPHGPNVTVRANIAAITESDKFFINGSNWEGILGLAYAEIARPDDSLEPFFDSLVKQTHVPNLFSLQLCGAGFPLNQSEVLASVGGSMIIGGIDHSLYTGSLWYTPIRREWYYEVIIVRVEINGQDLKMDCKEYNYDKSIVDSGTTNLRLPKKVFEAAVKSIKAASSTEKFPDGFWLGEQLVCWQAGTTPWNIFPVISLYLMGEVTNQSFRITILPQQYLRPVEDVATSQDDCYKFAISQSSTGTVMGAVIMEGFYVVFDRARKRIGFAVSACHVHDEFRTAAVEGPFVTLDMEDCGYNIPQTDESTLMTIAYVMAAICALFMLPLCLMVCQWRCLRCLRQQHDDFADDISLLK

pIC50 | Structure (SMILES)
6.02 | N#Cc1cccc(-c2ccc3c(c2)[C@@]2(CC3)N=C(N)OCC2(F)F)c1 [Example 10, (R)-3-(2′-Amino-5′,5′-difluoro-2,3,5′,6′-tetrahydrospiro[indene-1,4′-[1,3]oxazine]-6-yl)benzonitrile]
5.80 | NC1=N[C@@]2(CC(c3ccccc3)Oc3ccc(-c4cncnc4)cc32)C(F)(F)CO1 (mixture of isomers) [Example 25, (2RS,4R)-5′,5′-difluoro-2-phenyl-6-(pyrimidin-5-yl)-5′,6′-dihydrospiro[chroman-4,4′-[1,3]oxazin]-2′-amine]
5.63 | NC1=N[C@@]2(CCc3ccc(-c4cncnc4)cc32)C(F)(F)CO1 [Example 7, (R)-5′,5′-Difluoro-6-(pyrimidin-5-yl)-2,3,5′,6′-tetrahydrospiro[indene-1,4′-[1,3]oxazin]-2′-amine]
6.29 | N#Cc1ccc(C(=O)Nc2ccc3c(c2)[C@@]2(CC3)N=C(N)OCC2(F)F)nc1 [Example 15, (R)—N-(2′-Amino-5′,5′-difluoro-2,3,5′,6′-tetrahydrospiro[indene-1,4′-[1,3]oxazine]-6-yl)-5-cyanopicolinamide]
5.29 | NC1=N[C@@]2(CCOc3ccc(-c4cncnc4)cc32)C(F)(F)CO1 [Example 21, (R)-5′,5′-difluoro-6-(pyrimidin-5-yl)-5′,6′-dihydrospiro[chroman-4,4′-[1,3]oxazin]-2′-amine]
5.59 | NC1=N[C@@]2(CCC(F)(F)c3ccc(-c4cncc(Cl)c4)cc32)C(F)(F)CO1 [Example 3, (R)-7-(5-Chloropyridin-3-yl)-4,4,5′,5′-tetrafluoro-3,4,5′,6′-tetrahydro-2H-spiro[naphthalene-1,4′-[1,3]oxazin]-2′-amine]
5.24 | NC1=N[C@@]2(CCC(F)(F)c3ccc(-c4cncc(F)c4)cc32)C(F)(F)CO1 [Example 4, (R)-4,4,5′,5′-Tetrafluoro-7-(5-fluoropyridin-3-yl)-3,4,5′,6′-tetrahydro-2H-spiro[naphthalene-1,4′-[1,3]oxazin]-2′-amine]
5.56 | N#Cc1cncc(-c2ccc3c(c2)[C@@]2(CCC3(F)F)N=C(N)OCC2(F)F)c1 [Example 5, (R)-5-(2′-Amino-4,4,5′,5′-tetrafluoro-3,4,5′,6′-tetrahydro-2H-spiro[naphthalene-1,4′-[1,3]oxazine]-7-yl)nicotinonitrile]
6.18 | NC1=N[C@@]2(CCc3ccc(NC(=O)c4ccc(C(F)(F)F)cn4)cc32)C(F)(F)CO1 [Example 18, (R)—N-(2′-Amino-5′,5′-difluoro-2,3,5′,6′-tetrahydrospiro[indene-1,4′-[1,3]oxazine]-6-yl)-5-(trifluoromethyl)picolinamide]

The remaining lines, values behind:

Structure (SMILES) | pIC50
NC1=N[C@@]2(CCS(=O)(=O)c3ccc(NC(=O)c4ccc(Cl)cn4)cc32)C(F)(F)CO1 [Example 45, N-[(4R)-2-amino-5,5-difluoro-1′,1′-dioxido-2′,3′,5,6-tetrahydrospiro[1,3-oxazine-4,4′-thiochromen]-6′-yl]-5-chloropyridine-2-carboxamide] | 5.16
NC1=N[C@@]2(CCCc3ccc(NC(=O)c4ccc(Cl)cn4)cc32)C(F)(F)COC1 [Example 48, (R)—N-(3′-Amino-6′,6′-difluoro-3,4,6′,7′-tetrahydro-2H,2′H-spiro[naphthalene-1,5′-[1,4]oxazepine]-7-yl)-5-chloropicolinamide] | 6.35
NC1=N[C@@]2(CC(c3ccccc3)Oc3ccc(-c4cc(Cl)cc(Cl)c4)cc32)C(F)(F)COC1 (mixture of isomers) [Example 57, (2RS,4R)-6-(3,5-Dichlorophenyl)-6′,6′-difluoro-2-phenyl-6′,7′-dihydro-2′H-spiro[chroman-4,5′-[1,4]oxazepin]-3′-amine] | 5.20
NC1=N[C@@]2(CC(c3ccccc3)Oc3ccc(NC(=O)c4ccc(C(F)(F)F)cn4)cc32)C(F)(F)CO1 (single isomer, unassigned) [Example 39, N-((2R or 2S,4R)-2′-Amino-5′,5′-difluoro-2-phenyl-5′,6′-dihydrospiro[chroman-4,4′-[1,3]oxazine]-6-yl)-5-(trifluoromethyl)picolinamide] | 6.55
N#Cc1cncc(-c2ccc3c(c2)[C@@]2(CC(c4ccccc4)O3)N=C(N)COCC2(F)F)c1 (mixture of isomers) [Example 59, 5-((2RS,4R)-3′-amino-6′,6′-difluoro-2-phenyl-6′,7′-dihydro-2′H-spiro[chroman-4,5′-[1,4]oxazepine]-6-yl)nicotinonitrile] | 6.47
CC1(C)C[C@@]2(N=C(N)OCC2(F)F)c2cc(NC(=O)c3ccc(C#N)cn3)ccc2O1 [Example 41, (R)—N-(2′-Amino-5′,5′-difluoro-2,2-dimethyl-5′,6′-dihydrospiro[chroman-4,4′-[1,3]oxazine]-6-yl)-5-cyanopicolinamide] | 6.64
NC1=N[C@@]2(CCOc3ccc(-c4cncc(Cl)c4)cc32)C(F)(F)COC1 [Example 54, (R)-6-(5-Chloropyridin-3-yl)-6′,6′-difluoro-6′,7′-dihydro-2′H-spiro[chroman-4,5′-[1,4]oxazepin]-3′-amine] | 5.94
NC1=N[C@@]2(CC(c3ccccc3)Oc3ccc(NC(=O)c4ccc(Cl)cn4)cc32)C(F)(F)CO1 (single isomer, unassigned) [Example 36, N-((2R or 2S,4R)-2′-Amino-5′,5′-difluoro-2-phenyl-5′,6′-dihydrospiro[chroman-4,4′-[1,3]oxazine]-6-yl)-5-chloropicolinamide] | 6.71
N#Cc1cncc(-c2ccc3c(c2)[C@@]2(CC(c4ccccc4)O3)N=C(N)OCC2(F)F)c1 (mixture of isomers) [Example 24, 5-((2RS,4R)-2′-amino-5′,5′-difluoro-2-phenyl-5′,6′-dihydrospiro[chroman-4,4′-[1,3]oxazine]-6-yl)nicotinonitrile] | 7.01
NC1=N[C@@]2(CC(c3ccccc3)Oc3ccc(-c4cncc(Cl)c4)cc32)C(F)(F)CO1 (mixture of isomers) [Example 23, (2RS,4R)-6-(5-chloropyridin-3-yl)-5′,5′-difluoro-2-phenyl-5′,6′-dihydrospiro[chroman-4,4′-[1,3]oxazin]-2′-amine] | 6.38
NC1=N[C@@]2(CC(c3ccccc3)Oc3ccc(-c4cncc(Cl)c4)cc32)C(F)(F)COC1 (mixture of isomers) [Example 56, (2RS,4R)-6-(5-Chloropyridin-3-yl)-6′,6′-difluoro-2-phenyl-6′,7′-dihydro-2′H-spiro[chroman-4,5′-[1,4]oxazepin]-3′-amine] | 5.68
N#Cc1ccc(C(=O)Nc2ccc3c(c2)[C@@]2(CCS3(=O)=O)N=C(N)OCC2(F)F)nc1 [Example 46, N-[(4R)-2-amino-5,5-difluoro-1′,1′-dioxido-2′,3′,5,6-tetrahydrospiro[1,3-oxazine-4,4′-thiochromen]-6′-yl]-5-cyanoopyridine-2-carboxamide] | 5.47
CC1(C)C[C@@]2(N=C(N)OCC2(F)F)c2cc(NC(=O)c3ccc(Cl)cn3)ccc2O1 [Example 40, (R)—N-(2′-Amino-5′,5′-difluoro-2,2-dimethyl-5′,6′-dihydrospiro[chroman-4,4′-[1,3]oxazine]-6-yl)-5-chloropicolinamide] | 5.65
NC1=N[C@@]2(CC(c3ccccc3)Oc3ccc(NC(=O)c4ccc(F)cn4)cc32)C(F)(F)CO1 (single isomer, unassigned) [Example 38, N-((2R or 2S,4R)-2′-Amino-5′,5′-difluoro-2-phenyl-5′,6′-dihydrospiro[chroman-4,4′-[1,3]oxazine]-6-yl)-5-fluoropicolinamide] | 6.29
NC1=N[C@@]2(CC(c3ccccc3)Oc3ccc(-c4cc(Cl)cc(Cl)c4)cc32)C(F)(F)CO1 (mixture of isomers) [Example 26, (2RS,4R)-6-(3,5-dichlorophenyl)-5′,5′-difluoro-2-phenyl-5′,6′-dihydrospiro[chroman-4,4′-[1,3]oxazin]-2′-amine] | 5.54
NC1=N[C@@]2(CC(c3ccccc3)Oc3ccc(-c4cncnc4)cc32)C(F)(F)COC1 (mixture of isomers) [Example 58, (2RS,4R)-6′,6′-difluoro-2-phenyl-6-(pyrimidin-5-yl)-6′,7′-dihydro-2′H-spiro[chroman-4,5′-[1,4]oxazepin]-3′-amine] | 5.89
